Experimental findings from ChEMBL document CHEMBL3244025, “Carbocyclic arabinosyladenine, an adenosine deaminase resistant antiviral agent” (J Med Chem, 1977) are described below.

One data set concerns P388. The experiment in a line: Cytotoxicity against mouse P388 cells after 72 hrs by hemocytometric analysis. In kind it is functional.
Data set [1] is described as follows: Stability of the compound assessed as calf intestinal adenosine deaminase type 3-mediated deamination. In kind it is ADME, Bos taurus. Conditions: cattle.
Data set [2] is described as follows: Cytotoxicity against human Hep2 cells. In kind it is cell-based. Conditions: hep-2.
The subject of a further data set is Human alphaherpesvirus 1. Description: Antiviral activity against Herpes simplex virus type 1 HF infected in human Hep2 cells assessed as inhibition of virus-induced cytopathogenic effect. In kind it is functional, HEp-2. In general terms: Protection from cytopathic effect is a common read-out in antiviral testing.
A short description of data set [3]: Stability of the compound assessed as calf intestinal adenosine deaminase type 3-mediated deamination in presence of C-ara-A. Conditions: cattle. In kind it is ADME, Bos taurus.

In turn, `Nc1ncnc2c1ncn2[C@@H]1C[C@H](CO)[C@@H](O)[C@@H]1O` (racemic) showed an LD50 with P388 of 1 ×10⁻⁵ M. The Stability entry in data set [1] is “Stable”. This compound also showed an Activity in data set [2] of 9 µg/mL. Besides, in the data set with Human alphaherpesvirus 1, the MED50 worked out at 2.8 µg/mL.

For the compound `Nc1ncnc2c1ncn2[C@@H]1O[C@H](CO)[C@@H](O)[C@@H]1O` [VIDARABINE], the LD50 with P388 is reported as 1 ×10⁻⁵ M. Moreover, the Stability result in data set [1] and in data set [3] was “Unstable” each time.

As for `Nc1ncnc2c1ncn2[C@@H]1O[C@H](CO)[C@@H](O)[C@H]1O` [ADENOSINE], in data set [3], the Stability entry was “Unstable”.
